In patent publication US9969723B2, “3-(4-(benzyloxy)phenyl)hex-4-ynoic acid derivative, method of preparing same and pharmaceutical composition for preventing and treating metabolic disease including same as effective ingredient” (HYUNDAI PHARM CO., LTD, priority 2014, dated 2018):
Read-outs that look alike come from different tables or passages of the source.

Molecular target: GPR40 (Homo sapiens (Human), UniProt O14842)
Assay: GPR40 protein activity by intracellular calcium concentration (Fluo-4, Flexstation 3) in transfected HEK-293 cells
Format: cell-based
Conditions: HEK-293 cells transfected with human GPR40, intracellular calcium
Protocol: The GPR40 protein activity according to the novel 3-(4-(benzyloxy)phenyl)hex-4-inoic acid derivative of the present invention was measured by investigating the changes in intracellular calcium concentration affected by the GRP40 activation. First, HEK-293 cells were transfected with human GPR40 DNA (Origene, RC218370) by using Fugene HD (Promega, E2311). […] 24 hours later, the cell culture medium was replaced with Dulbecco's Modified Eagle Medium (DMEM, 50 μl/well) supplemented with 1% fetal bovine serum (FBS). To measure the calcium concentration, 50 μl of Fluo-4 reagent (Invitrogen, F10471) was added to each well, followed by culture in a 37° C. incubator for 2 hours. […] 2 hours after the culture began, those prepared samples were automatically injected to the cells by using Flexstation 3 (Molecular Devices). Then, intracellular calcium concentration was measured for 120 seconds by using SoftMax® Pro software. At this time, dimethylsulfoxide (DMSO) was injected to the cells for the non-treated group, followed by measuring the calcium concentration therein. The GPR40 protein activity was calculated by the below mathematical formula 1 with the results of calcium concentration measurement. GPR40 activity=(intracellular calcium concentration increased by the sample)/(intracellular calcium concentration of the non-treated group)×100 [Mathematical Formula 1]

[1] = values in text, read-out: EC50, concentration promoting activation of GPR40 protein by 50%

Sequence of GPR40 (O14842 whole entry): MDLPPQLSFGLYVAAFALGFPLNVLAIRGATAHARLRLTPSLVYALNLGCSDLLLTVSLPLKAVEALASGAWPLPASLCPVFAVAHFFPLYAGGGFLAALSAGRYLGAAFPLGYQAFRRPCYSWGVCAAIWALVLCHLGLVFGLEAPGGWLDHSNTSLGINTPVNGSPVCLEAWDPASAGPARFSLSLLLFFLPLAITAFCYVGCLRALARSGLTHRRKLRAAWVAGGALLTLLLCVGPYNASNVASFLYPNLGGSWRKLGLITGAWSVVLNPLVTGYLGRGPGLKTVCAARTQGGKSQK

Structure (SMILES): CC#C[C@@H](CC(=O)O)c1ccc(OCc2ccc(CN3CCN(c4ccc(O)cc4)CC3)cc2)cc1 [Example 35, (S)-3-(4-(4-((4-(4-hydroxyphenyl)piperazine-1-yl)methyl)benzyloxy)phenyl)hex-4-ynoic acid]
- EC50 (read-out: EC50): > 300 nM

Structure (SMILES): CC#C[C@@H](CC(=O)O)c1ccc(OCc2ccc(CCN3Cc4ccccc4C3)cc2)cc1 [Example 49, (S)-3-(4-(4-(2-(isoindoline-2-yl)ethyl)benzyloxy)phenyl)hex-4-ynoic acid]
- EC50 (read-out: EC50): > 300 nM

Structure (SMILES): CC#CC(CC(=O)O)c1ccc(OCc2cccc(C3=CCC(O)CC3)c2)cc1 [Example 6, L-lysine 3-(4-(3-(4-hydroxycyclohex-1-enyl)benzyloxy)phenyl)hex-4-ynoate]
- EC50 (read-out: EC50): 200 to 300 nM

Structure (SMILES): CC#CC(CC(=O)O)c1ccc(OCc2ccc(CN3CCc4ccccc4C3)c(C3=CCCCC3)c2)cc1 (stereo not shown) [Example 13, 3-(4-(3-cyclohexenyl-4-((3,4-dihydroisoquinoline-2(1H)-yl)methyl)benzyloxy)phenyl)hex-4-ynoic acid]
- EC50 (read-out: EC50): > 300 nM

Structure (SMILES): CC#C[C@@H](CC(=O)O)c1ccc(OCc2ccc(CN3CC=C(c4ccc(F)cc4)CC3)cc2)cc1 [Example 39, (S)-3-(4-(4-((4-(4-fluorophenyl)-5,6-dihydropyridine-1(2H)-yl)methyl)benzyloxy)phenyl)hex-4-ynoic acid]
- EC50 (read-out: EC50): 200 to 300 nM

Structure (SMILES): CC#CC(CC(=O)O)c1ccc(OCc2ccc(CN3CCc4ccccc4C3)cc2)cc1 (stereo not shown) [Example 12, 3-(4-(4-((3,4-dihydroisoquinoline-2(1H)-yl)methyl)benzyloxy)phenyl)hex-4-ynoic acid]
- EC50 (read-out: EC50): < 200 nM
- EC50 [1]: < 200 nM

Structure (SMILES): CC#CC(CC(=O)O)c1ccc(OCc2ccc(CN3CCc4cc(OC)ccc4C3)cc2)cc1 (stereo not shown) [Example 16, 3-(4-(4-((6-methoxy-3,4-dihydroisoquinoline-2(1H)-yl)methyl)benzyloxy)phenyl)hex-4-ynoic acid]
- EC50 (read-out: EC50): > 300 nM

Structure (SMILES): CC#C[C@@H](CC(=O)O)c1ccc(OCc2ccc(CN3CCC(c4ccccc4)C3)cc2)cc1 (stereo partly drawn) [Example 46, (3S)-3-(4-(4-((3-phenylpyrrolidine-1-yl)methyl)benzyloxy)phenyl)hex-4-ynoic acid]
- EC50 (read-out: EC50): > 300 nM

Structure (SMILES): CC#C[C@H](CC(=O)O)c1ccc(OCc2cccc(C3=CCC4(CC3)OCCO4)c2)cc1 [Example 8, (3R)-3-(4-(3-(1,4-dioxaspiro[4,5]dec-7-en-8-yl)benzyloxy)phenyl)hex-4-ynoic acid]
- EC50 (read-out: EC50): > 300 nM

Structure (SMILES): CC#CC(CC(=O)O)c1ccc(OCc2ccc(CN3CCN(c4ccccc4)CC3)cc2)cc1 (stereo not shown) [Example 15, 3-(4-(4-((4-phenylpiperazine-1-yl)methyl)benzyloxy)phenyl)hex-4-ynoic acid]
- EC50 (read-out: EC50): > 300 nM

Structure (SMILES): CC#C[C@@H](CC(=O)O)c1ccc(OCc2ccc(CCN3CCc4ccccc4C3)cc2)cc1 [Example 50, (S)-3-(4-(4-(2-(3,4-dihydroisoquinoline-2(1H)-yl)ethyl)benzyloxy)phenyl)hex-4-ynoic acid]
- EC50 (read-out: EC50): > 300 nM

Structure (SMILES): CC#C[C@@H](CC(=O)O)c1ccc(OCc2ccc(CN3CCN(c4ncc(CCC)cn4)CC3)cc2)cc1 [Example 44, (S)-3-(4-(4-((4-(5-propylpyrimidine-2-yl)piperazine-1-yl)methyl)benzyloxy)phenyl)hex-4-ynoic acid]
- EC50 (read-out: EC50): > 300 nM

Structure (SMILES): CC#C[C@@H](CC(=O)O)c1ccc(OCc2ccc(CCN3CCc4cc(OC)ccc4C3)cc2)cc1 [Example 48, (S)-3-(4-(4-(2-(6-methoxy-3,4-dihydroisoquinoline-2(1H)-yl)ethyl)benzyloxy)phenyl)hex-4-ynoic acid]
- EC50 (read-out: EC50): > 300 nM

Structure (SMILES): CC#C[C@@H](CC(=O)O)c1ccc(OCc2ccc(CN3Cc4ccccc4C3)cc2)cc1 [Example 27, (S)-3-(4-(4-(isoindoline-2-ylmethyl)benzyloxy)phenyl)hex-4-ynoic acid]
- EC50 (read-out: EC50): < 200 nM
- EC50 [1]: < 200 nM

Structure (SMILES): CC#C[C@@H](CC(=O)O)c1ccc(OCc2ccc(C(C)N3CCc4ccccc4C3)cc2)cc1 (stereo partly drawn) [Example 34, (3S)-3-(4-(4-(1-(3,4-dihydroisoquinoline-2(1H)-yl)ethyl)benzyloxy)phenyl)hex-4-ynoic acid]
- EC50 (read-out: EC50): > 300 nM

Structure (SMILES): CC#C[C@@H](CC(=O)O)c1ccc(OCc2ccc(CN3CCc4cc(OC)ccc4C3)cc2)cc1 [Example 25, (S)-3-(4-(4-((6-methoxy-3,4-dihydroisoquinoline-2(1H)-yl)methyl)benzyloxy)phenyl)hex-4-ynoic acid]
- EC50 (read-out: EC50): > 300 nM

Structure (SMILES): CC#C[C@@H](CC(=O)O)c1ccc(OCc2ccc(CN3CC=C(c4ccc(OCCCS(C)(=O)=O)cc4)CC3)cc2)cc1 [Example 33, (S)-3-(4-(4-((4-(4-(3-(methylsulfonyl)propoxy)phenyl)-5,6-dihydropyridine-1(2H)-yl)methyl)benzyloxy)phenyl)hex-4-ynoic acid]
- EC50 (read-out: EC50): > 300 nM

Structure (SMILES): CC#C[C@@H](CC(=O)O)c1ccc(OCc2ccc(CN3CCN(c4ccc(F)cc4)CC3)cc2)cc1 [Example 23, (S)-3-(4-(4-((4-(4-fluorophenyl)piperazine-1-yl)methyl)benzyloxy)phenyl)hex-4-ynoic acid]
- EC50 (read-out: EC50): 200 to 300 nM

Structure (SMILES): CC#C[C@@H](CC(=O)O)c1ccc(OCc2ccc(CN3CC=C(c4ccc(S(C)(=O)=O)cc4)CC3)cc2)cc1 [Example 32, (S)-3-(4-(4-((4-(4-(methylsulfonyl)phenyl)-5,6-dihydropyridine-1(2H)-yl)methyl)benzyloxy)phenyl)hex-4-ynoic acid]
- EC50 (read-out: EC50): > 300 nM

Structure (SMILES): CC#CC(CC(=O)O)c1ccc(OCc2ccc(CN3CCN(c4ccc(OCCCS(C)(=O)=O)cc4)CC3)cc2)cc1 (stereo not shown) [Example 20, 3-(4-(4-((4-(4-(3-(methylsulfonyl)propoxy)phenyl)piperazine-1-yl)methyl)benzyloxy)phenyl)hex-4-ynoic acid]
- EC50 (read-out: EC50): > 300 nM

Structure (SMILES): CC#CC(CC(=O)O)c1ccc(OCc2ccc(CN3CCC(c4ccccc4)CC3)cc2)cc1 (stereo not shown) [Example 17, 3-(4-(4-((4-phenylpiperidine-1-yl)methyl)benzyloxy)phenyl)hex-4-ynoic acid]
- EC50 (read-out: EC50): > 300 nM

Structure (SMILES): CC#CC(CC(=O)O)c1ccc(OCc2ccc(CN3CCN(c4ccc(C(F)(F)F)cc4)CC3)cc2)cc1 (stereo not shown) [Example 19, 3-(4-(4-((4-(4-(trifluoromethyl)phenyl)piperazine-1-yl)methyl)benzyloxy)phenyl)hex-4-ynoic acid]
- EC50 (read-out: EC50): > 300 nM

Structure (SMILES): CC#C[C@@H](CC(=O)O)c1ccc(OCc2ccc(CN3CCN(c4ccc(C(F)(F)F)cc4)CC3)cc2)cc1 [Example 22, (S)-3-(4-(4-((4-(4-(trifluoromethyl)phenyl)piperazine-1-yl)methyl)benzyloxy)phenyl)hex-4-ynoic acid]
- EC50 (read-out: EC50): > 300 nM

Structure (SMILES): CC#C[C@@H](CC(=O)O)c1ccc(OCc2ccc(CN3CCN(c4nc5ccccc5s4)CC3)cc2)cc1 [Example 43, (S)-3-(4-(4-((4-(benzo[d]thiazole-2-yl)piperazine-1-yl)methyl)benzyloxy)phenyl)hex-4-ynoic acid]
- EC50 (read-out: EC50): > 300 nM

Structure (SMILES): CC#CC(CC(=O)O)c1ccc(OCc2ccc(CN3CCN(c4ccc(F)cc4)CC3)cc2)cc1 (stereo not shown) [Example 18, 3-(4-(4-((4-(4-fluorophenyl)piperazine-1-yl)methyl)benzyloxy)phenyl)hex-4-ynoic acid]
- EC50 (read-out: EC50): > 300 nM

Structure (SMILES): CC#C[C@@H](CC(=O)O)c1ccc(OCc2ccc(CN3CCCc4ccccc43)cc2)cc1 [Example 41, sodium (S)-3-(4-(4-((3,4-dihydroquinoline-1(2H)-yl)methyl)benzyloxy)phenyl)hex-4-ynoate]
- EC50 (read-out: EC50): > 300 nM
